Measurements: patent publication US7928060B2, “Amylin family polypeptide-6 (AFP-6) analogs and methods of making and using them” (Amylin Pharmaceuticals, Inc., priority 2004, dated 2011)
Bridge positions count the residues as written; N and C are the ends. Ends that are not written are not given here. Peptide text beside a SMILES is read from it.

Legend:
calcitonin receptor = target: T1, calcitonin receptor (Rattus norvegicus, UniProt P32214); assay: calcitonin receptor binding assay (rCalcitonin RBA); details: Table 6; read-out: CT receptor binding
T1 sequence (P32214 25-516): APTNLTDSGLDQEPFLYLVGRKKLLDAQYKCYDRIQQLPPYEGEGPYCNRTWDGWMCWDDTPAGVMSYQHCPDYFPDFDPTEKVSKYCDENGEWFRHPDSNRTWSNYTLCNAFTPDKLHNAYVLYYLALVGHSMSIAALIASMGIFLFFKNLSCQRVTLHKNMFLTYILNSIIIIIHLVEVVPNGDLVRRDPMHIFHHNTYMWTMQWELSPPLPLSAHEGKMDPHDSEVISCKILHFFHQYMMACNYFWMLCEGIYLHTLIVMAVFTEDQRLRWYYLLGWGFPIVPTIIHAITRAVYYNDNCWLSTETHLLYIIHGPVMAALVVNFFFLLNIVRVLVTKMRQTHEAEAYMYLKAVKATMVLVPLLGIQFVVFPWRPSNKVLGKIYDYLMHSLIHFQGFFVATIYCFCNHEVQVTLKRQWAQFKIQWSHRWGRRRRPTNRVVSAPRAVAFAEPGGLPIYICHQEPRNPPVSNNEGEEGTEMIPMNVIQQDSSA

adrenomedullin receptor = adrenomedullin receptor (Homo sapiens, UniProt O60895+Q16602); assay: adrenomedullin (ADM) receptor binding assay; details: Table 6
Chain of adrenomedullin receptor (Q16602 23-461): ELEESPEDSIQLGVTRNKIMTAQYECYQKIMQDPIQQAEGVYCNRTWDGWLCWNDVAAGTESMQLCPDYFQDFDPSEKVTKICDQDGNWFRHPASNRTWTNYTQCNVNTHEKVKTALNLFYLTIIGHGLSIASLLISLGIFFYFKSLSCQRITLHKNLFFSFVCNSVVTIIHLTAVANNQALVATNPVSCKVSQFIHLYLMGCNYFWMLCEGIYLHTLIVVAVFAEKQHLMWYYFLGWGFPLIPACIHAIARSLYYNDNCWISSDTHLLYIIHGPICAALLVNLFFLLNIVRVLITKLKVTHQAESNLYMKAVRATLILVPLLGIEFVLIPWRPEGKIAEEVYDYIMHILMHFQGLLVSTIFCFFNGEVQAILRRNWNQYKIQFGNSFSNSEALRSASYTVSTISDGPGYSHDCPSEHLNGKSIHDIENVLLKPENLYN
Chain of adrenomedullin receptor (O60895 43-175): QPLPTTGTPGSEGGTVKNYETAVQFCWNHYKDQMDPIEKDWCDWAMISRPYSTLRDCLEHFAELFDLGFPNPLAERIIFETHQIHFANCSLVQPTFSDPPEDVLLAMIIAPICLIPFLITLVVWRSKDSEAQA

| Molecule | IC50 (calcitonin receptor) | IC50 (adrenomedullin receptor) |
| --- | --- | --- |
| CC(C)C[C@H](NC(=O)[C@H](CCC(N)=O)NC(=O)[C@H](Cc1c[nH]c2ccccc12)NC(=O)[C@H](CC(C)C)NC(=O)[C@H](CCCNC(=N)N)NC(=O)[C@H](Cc1c[nH]cn1)NC(=O)[C@H](CO)NC(=O)[C@H](CC(C)C)NC(=O)[C@H](CC(N)=O)NC(=O)[C@H](CCC(N)=O)NC(=O)[C@@H](NC(=O)[C@H](CCC(N)=O)NC(=O)[C@@H]1CSSC[C@H](N)C(=O)N[C@@H](C(C)C)C(=O)N[C@@H](CC(C)C)C(=O)NCC(=O)N[C@@H]([C@@H](C)O)C(=O)N1)C(C)C)C(=O)N[C@@H](CCCNC(=N)N)C(=O)N[C@@H](CCC(N)=O)C(=O)N[C@@H](CCC(=O)O)C(=O)N[C@@H](CO)C(=O)N[C@@H](C)C(=O)N1CCC[C@H]1C(=O)N[C@H](C(=O)N[C@@H](CCC(=O)O)C(=O)N1CCC[C@H]1C(=O)N[C@@H](CO)C(=O)N[C@@H](CO)C(=O)N1CCC[C@H]1C(=O)N[C@@H](Cc1c[nH]cn1)C(=O)N[C@@H](CO)C(=O)N[C@@H](Cc1ccc(O)cc1)C(N)=O)C(C)C [compound 19] (H-CVLGTCQVQNLSHRLWQLRQESAPVEPSSPHSY-NH2; disulfide 1-6 (inferred); N-terminus assumed) | 247 nM | ≥ 1000 nM |
| CC(C)C[C@H](NC(=O)[C@H](CCC(N)=O)NC(=O)[C@H](Cc1c[nH]c2ccccc12)NC(=O)[C@H](CC(C)C)NC(=O)[C@H](CCCNC(=N)N)NC(=O)[C@H](Cc1c[nH]cn1)NC(=O)[C@H](CO)NC(=O)[C@H](CC(C)C)NC(=O)[C@H](CC(N)=O)NC(=O)[C@H](CCC(N)=O)NC(=O)[C@@H](NC(=O)[C@H](CCC(N)=O)NC(=O)[C@@H]1CSSC[C@H](NC(=O)CNC(=O)[C@@H](N)C(C)C)C(=O)N[C@@H](C(C)C)C(=O)N[C@@H](CC(C)C)C(=O)NCC(=O)N[C@@H]([C@@H](C)O)C(=O)N1)C(C)C)C(=O)N[C@@H](CCCNC(=N)N)C(=O)N[C@@H](CCC(N)=O)C(=O)N[C@@H](CC(=O)O)C(=O)N[C@@H](CO)C(=O)N[C@@H](C)C(=O)N1CCC[C@H]1C(=O)N[C@H](C(=O)N[C@@H](CC(=O)O)C(=O)N1CCC[C@H]1C(=O)N[C@@H](CO)C(=O)N[C@@H](CO)C(=O)N1CCC[C@H]1C(=O)N[C@@H](Cc1c[nH]cn1)C(=O)N[C@@H](CO)C(=O)N[C@@H](Cc1ccc(O)cc1)C(N)=O)C(C)C [compound 18] (H-VGCVLGTCQVQNLSHRLWQLRQDSAPVDPSSPHSY-NH2; disulfide 3-8 (inferred); N-terminus assumed) | 24 nM | ≥ 1000 nM |
| TQAQLLRVGCVLGTCQVQNLSHRLWQLRQDSAPVDPSSPHSY-NH2 (disulfide 10-15 (inferred)) [compound 16] | 22 nM | ≥ 1000 nM |
| TQAQLLRVGCNTATCQVQNLSHRLWQLMGPAGRQDSAPVDPSSPHSY-NH2 (disulfide 10-15 (inferred)) [compound 21] | 17 nM | 47 nM |
| CC(C)C[C@H](NC(=O)[C@H](CCC(N)=O)NC(=O)[C@H](Cc1c[nH]c2ccccc12)NC(=O)[C@H](CC(C)C)NC(=O)[C@H](CCCNC(=N)N)NC(=O)[C@H](Cc1c[nH]cn1)NC(=O)[C@H](CO)NC(=O)[C@H](CC(C)C)NC(=O)[C@H](CC(N)=O)NC(=O)[C@H](CCC(N)=O)NC(=O)[C@@H](NC(=O)[C@H](CCC(N)=O)NC(=O)[C@@H]1CSSC[C@H](NC(=O)CN)C(=O)N[C@@H](CO)C(=O)N[C@@H](CC(N)=O)C(=O)N[C@@H](CC(C)C)C(=O)N[C@@H](CO)C(=O)N[C@@H]([C@@H](C)O)C(=O)N1)C(C)C)C(=O)N[C@@H](CCCNC(=N)N)C(=O)N[C@@H](CCC(N)=O)C(=O)N[C@@H](CC(=O)O)C(=O)N[C@@H](CO)C(=O)N[C@@H](C)C(=O)N1CCC[C@H]1C(=O)N[C@H](C(=O)N[C@@H](CCC(=O)O)C(=O)N1CCC[C@H]1C(=O)N[C@@H](CO)C(=O)N[C@@H](CO)C(=O)N1CCC[C@H]1C(=O)N[C@@H](Cc1c[nH]cn1)C(=O)N[C@@H](CO)C(=O)N[C@@H](Cc1ccc(O)cc1)C(N)=O)C(C)C [compound 38] (H-GCSNLSTCQVQNLSHRLWQLRQDSAPVEPSSPHSY-NH2; disulfide 2-8 (inferred); N-terminus assumed) | 17 nM |  |
| CC(C)C[C@H](NC(=O)[C@H](CCC(N)=O)NC(=O)[C@H](C)NC(=O)[C@H](CCC(N)=O)NC(=O)[C@@H](N)[C@@H](C)O)C(=O)N[C@@H](CC(C)C)C(=O)N[C@@H](CCCNC(=N)N)C(=O)N[C@H](C(=O)NCC(=O)N[C@H]1CSSC[C@@H](C(=O)N[C@@H](CCC(N)=O)C(=O)N[C@H](C(=O)N[C@@H](CCC(N)=O)C(=O)N[C@@H](CC(N)=O)C(=O)N[C@@H](CC(C)C)C(=O)N[C@@H](CO)C(=O)N[C@@H](Cc2c[nH]cn2)C(=O)N[C@@H](CCCNC(=N)N)C(=O)N[C@@H](CC(C)C)C(=O)N[C@@H](Cc2c[nH]c3ccccc23)C(=O)N[C@@H](CCC(N)=O)C(=O)N[C@@H](CC(C)C)C(=O)N[C@@H](CC(=O)O)C(=O)N[C@@H](CO)C(=O)N[C@@H](C)C(=O)N2CCC[C@H]2C(=O)N[C@H](C(=O)N[C@@H](CC(=O)O)C(=O)N2CCC[C@H]2C(=O)N[C@@H](CO)C(=O)N[C@@H](CO)C(=O)N2CCC[C@H]2C(=O)N[C@@H](Cc2c[nH]cn2)C(=O)N[C@@H](CO)C(=O)N[C@@H](Cc2ccc(O)cc2)C(N)=O)C(C)C)C(C)C)NC(=O)[C@H]([C@@H](C)O)NC(=O)CNC(=O)[C@H](CC(C)C)NC(=O)[C@H](C(C)C)NC1=O)C(C)C [compound 17] (H-TQAQLLRVGCVLGTCQVQNLSHRLWQLDSAPVDPSSPHSY-NH2; disulfide 10-15 (inferred); N-terminus assumed) | > 1000 nM | 304 nM |
| H-GMVLGTMQVQNLSHRLWQLMGPAGRQDSAPVDPSSPHSY-NH2 [compound 26] | > 1000 nM | 37 nM |
| CC(C)C[C@@H]1NC(=O)[C@H](CC(N)=O)NC(=O)CNC(=O)[C@@H](NC(=O)CNC(=O)[C@@H](N)C(C)C)CSSC[C@@H](C(=O)N[C@@H](CCC(N)=O)C(=O)N[C@H](C(=O)N[C@@H](CCC(N)=O)C(=O)N[C@@H](CC(N)=O)C(=O)N[C@@H](CC(C)C)C(=O)N[C@@H](CO)C(=O)N[C@@H](Cc2c[nH]cn2)C(=O)N[C@@H](CCCNC(=N)N)C(=O)N[C@@H](CC(C)C)C(=O)N[C@@H](Cc2c[nH]c3ccccc23)C(=O)N[C@@H](CCC(N)=O)C(=O)N[C@@H](CC(C)C)C(=O)N[C@@H](CCCNC(=N)N)C(=O)N[C@@H](CCC(N)=O)C(=O)N[C@@H](CC(=O)O)C(=O)N[C@@H](CO)C(=O)N[C@@H](C)C(=O)N2CCC[C@H]2C(=O)N[C@H](C(=O)N[C@@H](CC(=O)O)C(=O)N2CCC[C@H]2C(=O)N[C@@H](CO)C(=O)N[C@@H](CO)C(=O)N2CCC[C@H]2C(=O)N[C@@H](Cc2c[nH]cn2)C(=O)N[C@@H](CO)C(=O)N[C@@H](Cc2ccc(O)cc2)C(N)=O)C(C)C)C(C)C)NC(=O)[C@H]([C@@H](C)O)NC(=O)[C@H](CO)NC1=O [compound 29] (H-VGCGNLSTCQVQNLSHRLWQLRQDSAPVDPSSPHSY-NH2; disulfide 3-9 (inferred)) | 9 nM | ≥ 1000 nM |
